± gives the expanded uncertainty stated by the source.
Columns and labels:
[1] = xn = mol fraction of the nth substance listed; details: 81.5 kPa, Liquid, Vibrating tube method
[2] = refractive index (Na D-line) (dimensionless); xn = mol fraction of the nth substance listed; details: 81.5 kPa, Liquid, Standard Abbe refractometry

O=[N+]([O-])c1ccccc1 [nitrobenzene] + ClCCCl
Details | mass density, 293.15 K [kg/m3] | mass density, 303.15 K [kg/m3] | mass density, 313.15 K [kg/m3] | mass density, 323.15 K [kg/m3] | mass density, 333.15 K [kg/m3] | refractive index, 293.15 K | refractive index, 303.15 K | refractive index, 313.15 K | refractive index, 323.15 K | refractive index, 333.15 K
[1], x2 = 0 | 1203.05 ± 10 | 1193.15 ± 10 | 1183.21 ± 10 | 1173.27 ± 10 | 1163.32 ± 10 | – | – | – | – | –
[1], x2 = 0.1008 | 1206.99 ± 10 | 1196.83 ± 10 | 1186.61 ± 10 | 1176.36 ± 10 | 1166.07 ± 10 | – | – | – | – | –
[1], x2 = 0.1993 | 1211.04 ± 10 | 1200.58 ± 10 | 1190.03 ± 10 | 1179.45 ± 10 | 1168.82 ± 10 | – | – | – | – | –
[1], x2 = 0.3 | 1215.35 ± 10 | 1204.56 ± 10 | 1193.66 ± 10 | 1182.68 ± 10 | 1171.66 ± 10 | – | – | – | – | –
[1], x2 = 0.3997 | 1219.84 ± 10 | 1208.67 ± 10 | 1197.36 ± 10 | 1185.98 ± 10 | 1174.52 ± 10 | – | – | – | – | –
[1], x2 = 0.4991 | 1224.55 ± 10 | 1212.96 ± 10 | 1201.23 ± 10 | 1189.39 ± 10 | 1177.48 ± 10 | – | – | – | – | –
[1], x2 = 0.6004 | 1229.62 ± 10 | 1217.53 ± 10 | 1205.32 ± 10 | 1193 ± 10 | 1180.62 ± 10 | – | – | – | – | –
[1], x2 = 0.7006 | 1234.94 ± 10 | 1222.31 ± 10 | 1209.57 ± 10 | 1196.72 ± 10 | 1183.82 ± 10 | – | – | – | – | –
[1], x2 = 0.801 | 1240.51 ± 10 | 1227.39 ± 10 | 1214.06 ± 10 | 1200.58 ± 10 | 1187.03 ± 10 | – | – | – | – | –
[1], x2 = 0.8997 | 1246.65 ± 10 | 1232.66 ± 10 | 1218.68 ± 10 | 1204.5 ± 10 | 1190.22 ± 10 | – | – | – | – | –
[2], x2 = 0 | – | – | – | – | – | 1.55241 ± 0.01 | 1.54763 ± 0.01 | 1.54288 ± 0.01 | 1.53795 ± 0.01 | 1.53289 ± 0.01
[2], x2 = 0.1008 | – | – | – | – | – | 1.54317 ± 0.01 | 1.53879 ± 0.01 | 1.53437 ± 0.01 | 1.52975 ± 0.01 | 1.52496 ± 0.01
[2], x2 = 0.1993 | – | – | – | – | – | 1.5343 ± 0.01 | 1.53004 ± 0.01 | 1.52579 ± 0.01 | 1.5214 ± 0.01 | 1.5169 ± 0.01
[2], x2 = 0.3 | – | – | – | – | – | 1.5252 ± 0.01 | 1.52093 ± 0.01 | 1.51672 ± 0.01 | 1.51243 ± 0.01 | 1.5081 ± 0.01
[2], x2 = 0.3997 | – | – | – | – | – | 1.51592 ± 0.01 | 1.51157 ± 0.01 | 1.5073 ± 0.01 | 1.50299 ± 0.01 | 1.49867 ± 0.01
[2], x2 = 0.4991 | – | – | – | – | – | 1.5061 ± 0.01 | 1.50165 ± 0.01 | 1.49727 ± 0.01 | 1.49286 ± 0.01 | 1.48847 ± 0.01
[2], x2 = 0.6004 | – | – | – | – | – | 1.49525 ± 0.01 | 1.49071 ± 0.01 | 1.48623 ± 0.01 | 1.48171 ± 0.01 | 1.4772 ± 0.01
[2], x2 = 0.7006 | – | – | – | – | – | 1.48353 ± 0.01 | 1.47893 ± 0.01 | 1.47436 ± 0.01 | 1.46977 ± 0.01 | 1.46518 ± 0.01
[2], x2 = 0.801 | – | – | – | – | – | 1.47088 ± 0.01 | 1.46619 ± 0.01 | 1.46154 ± 0.01 | 1.45687 ± 0.01 | 1.45224 ± 0.01
[2], x2 = 0.8997 | – | – | – | – | – | 1.45787 ± 0.01 | 1.453 ± 0.01 | 1.44817 ± 0.01 | 1.44337 ± 0.01 | 1.43861 ± 0.01

From the NIST ThermoML archive (doi:10.1016/j.jct.2015.12.027)
